Results: patent US20200002432A1, “ANTI-CD98 ANTIBODIES AND ANTIBODY DRUG CONJUGATES” (AbbVie Inc., priority 2016, published 2020)

Assays:
[1] = system: A549-FP3 human lung carcinoma xenograft; experiment: A549 FP3 xenograft tumor growth inhibition in SCID-bg mice, with or without docetaxel; assay type: in vivo, mouse; settings: QD × 1, Ab095 8 mg/kg IP, docetaxel 7.5 mg/kg IV, ADC 10 mg/kg IP, combination 7.5 + 10
Protocol: (§1) The cell lines A549 and NCI-H460 were obtained from the American Type Culture Collection (ATCC, Manassas, Va.). A549 cell line was further passaged in mice as flank xenograft to improve xenograft tumor growth, resulting in the A549-FP3 line. Cells were cultured as monolayers in RPMI-1640 culture media (Invitrogen, Carlsbad, Calif.) supplemented with 10% Fetal Bovine Serum (FBS, Hyclone, Logan, Utah). To generate xenografts, 5×10^6 (A549 and NCI-H460) viable cells were inoculated subcutaneously into the right flank of immune deficient female SCID-bg mice (Charles River Laboratories, Wilmington, Mass.). The injection volume was 0.2 ml and composed of 1:1 S-MEM:Matrigel Matrigel (BD, Franklin Lakes, N.J.). Tumors were size matched at approximately 223 mm^3. Antibodies, conjugates, and docetaxel were formulated in 0.9% sodium chloride for injection. […] Therapy began within 24 hours after size matching of the tumors. Mice weighed approximately 21 g at the onset of therapy. Tumor volume was estimated two to three times weekly. Measurements of the length (L) and width (W) of the tumor were taken via electronic caliper and the volume was calculated according to the following equation: V=L×W^2/2. […] Eight mice were housed per cage. […] Tumor growth inhibition is calculated by 100*(1−Tv/Cv) where Tv and Cv are the mean tumor volumes of the treated and control groups, respectively.

[2] = system: NCI-H460 human lung carcinoma xenograft; experiment: NCI-H460 xenograft tumor growth inhibition in SCID-bg mice, with or without docetaxel; assay type: in vivo, mouse; settings: QD × 1, Ab095 8 mg/kg IP, docetaxel 7.5 mg/kg IV, ADC 10 mg/kg IP, combination 7.5 + 10
Protocol: as §1

With CC(=O)O[C@@]12CO[C@@H]1C[C@H](O)[C@@]1(C)C(=O)[C@H](O)C3=C(C)[C@@H](OC(=O)[C@H](O)[C@@H](NC(=O)OC(C)(C)C)c4ccccc4)C[C@@](O)([C@@H](OC(=O)c4ccccc4)[C@H]21)C3(C)C [Docetaxel, reference compound] the “TGD (%)” value [1] was 80%, the “TGImax (%)” value [1] was 62% and the “TGD (%)” value [2] was 30%. For the same compound, the “TGImax (%)” value [2] was 35%.
